Test results as given in patent publication US20260250290A1 (BRISTOL-MYERS SQUIBB COMPANY, priority 2023, published 2026).
Counter-ions that a name gives are not always drawn.

Molecular target: T1, full length SGK1 (Homo sapiens, UniProt O00141)
T1 construct: 125 μM full length SGK1 (Life Technologies Part #PR7358A); purchased Life Technologies PR7358A
T1 sequence (O00141 1-431): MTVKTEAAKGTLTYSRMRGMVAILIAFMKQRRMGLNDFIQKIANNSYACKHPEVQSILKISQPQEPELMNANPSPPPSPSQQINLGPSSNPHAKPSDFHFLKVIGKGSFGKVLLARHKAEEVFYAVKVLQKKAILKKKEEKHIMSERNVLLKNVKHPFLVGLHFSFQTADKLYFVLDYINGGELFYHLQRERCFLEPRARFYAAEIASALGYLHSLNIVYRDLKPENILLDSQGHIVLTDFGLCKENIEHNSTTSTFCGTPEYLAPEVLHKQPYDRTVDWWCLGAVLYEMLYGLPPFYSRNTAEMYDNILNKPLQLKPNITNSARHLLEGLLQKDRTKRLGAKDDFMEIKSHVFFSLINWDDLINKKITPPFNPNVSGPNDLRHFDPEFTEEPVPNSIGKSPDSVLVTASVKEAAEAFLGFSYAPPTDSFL
Experiment: SGK1 inhibition Assay A (Caliper LabChip electrophoretic separation of fluorescent peptide substrate and phosphorylated product)
Format: biochemical
Settings: Assay A; 20 μM ATP, 40 min incubation; read-out: SGK1 IC50

SMILES	IC50 [nM]
Nc1ncnn2c(-c3ccc(CN4CCOCC4)cc3)cc(N3CCC[C@@H](NC(=O)c4ccc(Cl)s4)C3)c12 [Example 221]	800
Cc1csc(C(=O)N[C@@H]2CCCN(c3cc(-c4ccc(S(C)(=O)=O)cc4)n4ncnc(N)c34)C2)c1 [Example 97, (R)-N-(1-(4-amino-7-(4-(methylsulfonyl)phenyl)pyrrolo[2,1-f][1,2,4]triazin-5-yl)piperidin-3-yl)-4-methylthiophene-2-carboxamide, TFA]	3
Nc1ncnn2c(-c3ccn4nnnc4c3)cc(N3CCC[C@@H](NC(=O)c4ccc(Cl)s4)C3)c12 [Example 253, (R)-N-(1-(4-amino-7-(tetrazolo[1,5-a]pyridin-7-yl)pyrrolo[2,1-f][1,2,4]triazin-5-yl)piperidin-3-yl)-5-chlorothiophene-2-carboxamide]	2
Cc1ccc(C(=O)NC2CCCN(c3cc(-c4ccc(S(C)(=O)=O)cc4)n4ncnc(N)c34)C2)cc1 (stereo not shown) [Example 7, N-(1-(4-amino-7-(4-(methylsulfonyl)phenyl)pyrrolo[2,1-f][1,2,4]triazin-5-yl)piperidin-3-yl)-4-methylbenzamide, TFA]	90
CN(C)CCOc1cc(Cl)sc1C(=O)N[C@@H]1CCCN(c2cc(-c3ccc(=O)n(CC(F)F)c3)n3ncnc(N)c23)C1 [Example 281, (R)-N-(1-(4-amino-7-(1-(2,2-difluoroethyl)-6-oxo-1,6-dihydropyridin-3-yl)pyrrolo[2,1-f][1,2,4]triazin-5-yl)piperidin-3-yl)-5-chloro-3-(2-(dimethylamino)ethoxy) thiophene-2-carboxamide]	4
CS(=O)(=O)c1ccc(-c2cc(N3CCC[C@H](C(=O)Nc4nccs4)C3)c3c(N)ncnn23)cc1 [Example 103, (S)-1-(4-amino-7-(4-(methylsulfonyl)phenyl)pyrrolo[2,1-f][1,2,4]triazin-5-yl)-N-(thiazol-2-yl)piperidine-3-carboxamide]	726
COc1cc(C(=O)N[C@@H]2CCCN(c3cc(C4=CCN(S(C)(=O)=O)C4)n4ncnc(N)c34)C2)ccn1 [Example 114, (R)—N-(1-(4-amino-7-(1-(methylsulfonyl)-2,5-dihydro-1H-pyrrol-3-yl)pyrrolo[2,1-f][1,2,4]triazin-5-yl)piperidin-3-yl)-2-methoxyisonicotinamide]	16
CNC(=O)c1ccc(-c2cc(N3CCC[C@@H](NC(=O)c4ccc(Cl)s4)C3)c3c(N)ncnn23)cn1 [Example 242, (R)-5-(4-amino-5-(3-(5-chlorothiophene-2-carboxamido)piperidin-1-yl)pyrrolo[2,1-f][1,2,4]triazin-7-yl)-N-methylpicolinamide]	5
COc1cccc(C(=O)N[C@@H]2CCCN(c3cc(-c4ccc(S(C)(=O)=O)cc4)n4ncnc(N)c34)C2)c1 [Example 22, (R)-N-(1-(4-amino-7-(4-(methylsulfonyl)phenyl)pyrrolo[2,1-f][1,2,4]triazin-5-yl)piperidin-3-yl)-3-methoxybenzamide]	12
CN(C)CCOc1cc(Cl)sc1C(=O)N[C@@H]1CCCN(c2cc(C3=CCN(S(C)(=O)=O)C3)n3ncnc(N)c23)C1 [Example 141, (R)—N-(1-(4-amino-7-(1-(methylsulfonyl)-2,5-dihydro-1H-pyrrol-3-yl)pyrrolo[2,1-f][1,2,4]triazin-5-yl)piperidin-3-yl)-5-chloro-3-(2-(dimethylamino)ethoxy)thiophene-2-carboxamide, TFA]	3
COc1ccc(OC(=O)N[C@@H]2CCCN(c3cc(C4=CCN(C(C)=O)C4)n4ncnc(N)c34)C2)cc1 [Example 812, 4-methoxyphenyl (R)-(1-(7-(1-acetyl-2,5-dihydro-1H-pyrrol-3-yl)-4-aminopyrrolo[2,1-f][1,2,4]triazin-5-yl)piperidin-3-yl)carbamate TFA salt]	984

Next, values leading:

IC50 [nM]	SMILES
47	Cc1nc(OCCN(C)C)c(C(=O)N[C@@H]2CCCN(c3cc(-c4ccc(=O)n(CC(C)C)c4)n4ncnc(N)c34)C2)s1 [Example 355, (R)-N-(1-(4-amino-7-(1-isobutyl-6-oxo-1,6-dihydropyridin-3-yl)pyrrolo[2,1-f][1,2,4]triazin-5-yl)piperidin-3-yl)-4-(2-(dimethylamino)ethoxy)-2-methylthiazole-5-carboxamide]
4	COC(=O)N1CC=C(c2cc(N3CCC[C@@H](NC(=O)c4sc(Cl)cc4OC4COC4)C3)c3c(N)ncnn23)C1 [Example 567, Methyl (R)-3-(4-amino-5-(3-(5-chloro-3-(oxetan-3-yloxy)thiophene-2-carboxamido)piperidin-1-yl)pyrrolo[2,1-f][1,2,4]triazin-7-yl)-2,5-dihydro-1H-pyrrole-1-carboxylate]
23	CC(=O)N1CC=C(c2cc(N3CCC[C@@H](NC(=O)c4cccc(N[C@@H]5CCN(C)C5)n4)C3)c3c(N)ncnn23)C1 [Example 760, N—((R)-1-(7-(1-acetyl-2,5-dihydro-1H-pyrrol-3-yl)-4-aminopyrrolo[2,1-f][1,2,4]triazin-5-yl)piperidin-3-yl)-6-(((R)-1-methylpyrrolidin-3-yl)amino)picolinamide]
32	CN(C)CCOc1c(C(=O)N[C@@H]2CCCN(c3cc(-c4ccnc(C#N)c4)n4ncnc(N)c34)C2)[nH]c2ccccc12 [Example 366, (R)-N-(1-(4-amino-7-(2-cyanopyridin-4-yl)pyrrolo[2,1-f][1,2,4]triazin-5-yl)piperidin-3-yl)-3-(2-(dimethylamino)ethoxy)-1H-indole-2-carboxamide]
50	CC(=O)Nc1ccc(C(=O)N[C@@H]2CCCN(c3cc(C4=CCN(C(C)=O)C4)n4ncnc(N)c34)C2)cc1 [Example 466, (R)-4-acetamido-N-(1-(7-(1-acetyl-2,5-dihydro-1H-pyrrol-3-yl)-4-aminopyrrolo[2,1-f][1,2,4]triazin-5-yl)piperidin-3-yl)benzamide]
7	Cc1nc(OC2CCN(C(C)C)CC2)c(C(=O)N[C@@H]2CCCN(c3cc(-c4ccc(C#N)nc4)n4ncnc(N)c34)C2)s1 [Example 363, (R)-N-(1-(4-amino-7-(6-cyanopyridin-3-yl)pyrrolo[2,1-f][1,2,4]triazin-5-yl)piperidin-3-yl)-4-((1-isopropylpiperidin-4-yl)oxy)-2-methylthiazole-5-carboxamide]
18	COC(=O)N1CC=C(c2cc(N3CCC[C@@H](NC(=O)c4sc5ccccc5c4OC4CCN(C)CC4)C3)c3c(N)ncnn23)C1 [Example 658, methyl (R)-3-(4-amino-5-(3-(3-((1-methylpiperidin-4-yl)oxy)benzo[b]thiophene-2-carboxamido)piperidin-1-yl)pyrrolo[2,1-f][1,2,4]triazin-7-yl)-2,5-dihydro-1H-pyrrole-1-carboxylate]
61	CC(=O)N1CC=C(c2cc(N3CCC[C@@H](NC(=O)c4cccc(F)n4)C3)c3c(N)ncnn23)C1 [Example 726, :(R)-N-(1-(7-(1-acetyl-2,5-dihydro-1H-pyrrol-3-yl)-4-aminopyrrolo[2,1-f][1,2,4]triazin-5-yl)piperidin-3-yl)-6-fluoropicolinamide]
4	CC(=O)N1CC=C(c2cc(N3CCC[C@@H](NC(=O)c4sc(Cl)cc4OC4CCN(C)CC4)C3)c3c(N)ncnn23)C1 [Example 579, (R)-N-(1-(7-(1-acetyl-2,5-dihydro-1H-pyrrol-3-yl)-4-aminopyrrolo[2,1-f][1,2,4]triazin-5-yl)piperidin-3-yl)-5-chloro-3-((1-methylpiperidin-4-yl)oxy)thiophene-2-carboxamide]
5	CC(=O)N1CC=C(c2cc(N3CCC[C@@H](NC(=O)c4sc(Cl)cc4OC4CCN(C)CC4F)C3)c3c(N)ncnn23)C1 (stereo partly drawn) [Example 604, N-((R)-1-(7-(1-acetyl-2,5-dihydro-1H-pyrrol-3-y1)-4-aminopyrrolo[2,1-f][1,2,4]triazin-5-yl)piperidin-3-y1)-5-chloro-3-((3-fluoro-1-methylpiperidin-4-yl)oxy)thiophene-2-carboxamide]
18	N#Cc1ncc(-c2cc(N3CCC[C@@H](NC(=O)c4ccc(Cl)s4)C3)c3c(N)ncnn23)cc1C(F)(F)F [Example 531, (R)-N-(1-(4-amino-7-(6-cyano-5-(trifluoromethyl)pyridin-3-yl)pyrrolo[2,1-f][1,2,4]triazin-5-yl)piperidin-3-yl)-5-chlorothiophene-2-carboxamide]
6	CC(=O)N1CC=C(c2cc(N3CCC[C@@H](NC(=O)c4sc(Cl)cc4OC4CN(C(C)C)C4)C3)c3c(N)ncnn23)C1 [Example 577, (R)-N-(1-(7-(1-acetyl-2,5-dihydro-1H-pyrrol-3-yl)-4-aminopyrrolo[2,1-f][1,2,4]triazin-5-yl)piperidin-3-yl)-5-chloro-3-((1-isopropylazetidin-3-yl)oxy)thiophene-2-carboxamide]
26	Cc1nc(C)c(C(=O)N[C@@H]2CCCN(c3cc(-c4ccnc(C(F)F)c4)n4ncnc(N)c34)C2)s1 [Example 485, (R)-N-(1-(4-amino-7-(2-(difluoromethyl)pyridin-4-yl)pyrrolo[2,1-f][1,2,4]triazin-5-yl)piperidin-3-yl)-2,4-dimethylthiazole-5-carboxamide]
2	Nc1ncnn2c(-c3ccnc(C(F)F)c3)cc(N3CCC[C@@H](NC(=O)c4sc(Cl)cc4OC4CCNCC4)C3)c12 [Example 588, (R)-N-(1-(4-amino-7-(2(difluoromethyl)pyridin-4-yl)pyrrolo[2,1-f][1,2,4]triazin-5-yl)piperidin-3-yl)-5-chloro-3-(piperidin-4-yloxy)thiophene-2-carboxamide]
